Source: patent publication US10087194B2, “Podophyllotoxin derivatives and their use” (California Pacific Medical Center, priority 2015, dated 2018)
Where two headings read alike, the source gives them in different places.

How the values were obtained:
[1] = tested on: COLO205 human colon cancer xenograft; assay: Subcutaneous COLO205 human colon cancer xenograft model; assay type: in vivo, Mus Musculus
Protocol: Each mouse was inoculated subcutaneously with 5×10^6 COLO205 tumor cells in 0.1 ml PBS for tumor development. Treatments were started when the tumor volume reached 120 mm^3. […] Body weight and tumor volume were measured twice a week.

[2] = tested on: HCT116 human colon cancer xenograft; assay: Subcutaneous HCT116 human colon cancer xenograft model; assay type: in vivo, Mus Musculus; settings: for TGI: HCT116, day 29
Protocol: Each mouse was inoculated subcutaneously with 5×10^6 HCT116 tumor cells in 0.1 ml PBS for tumor development. Treatments were started when the tumor volume reached 100 mm^3. […] Body weight and tumor volume were measured twice a week.

[3] = Toxicity studies in Cynomolgus monkeys (MTD); assay type: in vivo
[4] = Rat MTD study; assay type: in vivo, Sprague-Dawley rats
Protocol: In the rat MTD study, Sprague-Dawley rats were dosed with 801 HCl at a concentration of 6 mg/ml via intravenous infusion or slow intravenous injection. The MTD of 801 in normal rats was 120 mg/kg/day. In the 7-day repeating dose study, the rats were administered with […] via BID slow IV injection for 7 days.

[5] = Toxicity study (MTD) in normal mice; settings: single i.p. injection; C3H female normal mice; checked daily for 40 days (MTD40)
[6] = tested on: K562 human chronic myeloid leukemia xenograft; assay: Subcutaneous K562 human chronic myeloid leukemia xenograft model
[7] = tested on: HCT116 Human Colon Cancer Cells; assay: Colony formation assay, HCT116; assay type: cell-based
Protocol: (§1) Cancer cells were plated in 60 mm Petri dishes containing 2.7 ml of medium (modified McCoy's 5a medium containing 10% fetal bovine serum and 100 units/ml penicillin and 100 ug/ml streptomycin). The cells were incubated in a CO2 incubator at 37 degree C. for 5 hours for attachment to the bottom of Petri dishes. Drugs were made up fresh in medium at ten times the final concentration, and then 0.3 ml of this stock solution was added to the 2.7 ml of medium in the dish. The cells were then incubated with drugs for 72 hours at 37 degree C. At the end of incubation the drug-containing media were decanted, the dishes were rinsed with 4 ml of Hank's Balance Salt Solution (HBSS), 5 ml of fresh medium was added, and the dishes were returned to the incubator for colony formation. The cell colonies were counted using colony counter after incubation for 7 days (HCT116 cell line), 14 days (VM46 cell line) and 15 days (H23 cell line). Cell survival (%) was calculated from 3 repeated dishes for each drug concentration and the mean values of IC50 (the drug concentration producing 50% inhibition of colony formation) were determined for each tested compound.

[8] = tested on: VM46 Human Colon Cancer Cells Overexpressing Multi-drug Resistant Gene 1; assay: Colony formation assay, VM46; assay type: cell-based; settings: read-out: IC50 (VM46)
Protocol: as §1

[9] = tested on: H23 Human Non-small Cell Lung Cancer Cells; assay: Colony formation assay, H23; assay type: cell-based; settings: read-out: IC50 (H23)
Protocol: as §1

[10] = tested on: HCT116 human colon cancer xenografts; assay: Preliminary in vivo efficacy, HCT116 xenografts in nude mice; set-up: species or system nude mice (nu/nu genotype); settings: single i.p. injection at i.p. MTD doses
Protocol: In vivo anticancer efficacy study was performed on nude mice (nu/nu genotype) bearing HCT116 human colon cancer xenografts. These human tumors grew exponentially following implantation into the flanks of the mice and reached an average tumor volume of 79.85 cu. mm. Treatment was initiated at that time, with the first day of treatment designated as day 0 for all calculations and plots. The 6 mice were injected i.p. with each of four Neovia drug solutions (5% alcohol, 5% Cremophor EL, and 90% saline, 0.5 ml/20 g, single injection). Drug doses (i.p. MTD doses) were 120 mg/kg for Neovia-1, 300 mg/kg for Neovia-2, 120 mg/kg for Neovia-3, and 180 mg/kg for Neovia-4. Control group of mice was treated with vehicle alone. After treatment, tumor sizes were measured by caliper every other day. The measurement of the tumor diameters (d1, d2) in two orthogonal directions was used to calculate the tumor volume (tumor volume=π/6 {(d1+d2)/2}3) using the approximation that the tumors are spherical. Each tumor growth curve for each mouse was plotted. The time (days) required to grow the tumor to the size of 800 cu. mm after various treatments was calculated as tumor growth delay indexes for evaluating the treatment effects. Survival times after treatment was also observed and recorded.

[11] = in vivo; settings: female, C3H, mouse, ip
[12] = Homo sapiens, HCT-116, drugs 72 hours, colonies counted after 7 days, read-out: IC50 (HCT116)
[13] = Homo sapiens, drugs 72 hours, colonies counted after 14 days
[14] = Homo sapiens, drugs 72 hours, colonies counted after 15 days

Q: What does the source list for `CCC1(OC(=O)COc2ccc(C(=O)OC3c4cc5c(cc4C(c4cc(OC)c(OC)c(OC)c4)C4C(=O)OCC34)OCO5)cc2)C(=O)OCc2c1cc1n(c2=O)Cc2cc3cc(OC(=O)N4CCC(N5CCCCC5)CC4)ccc3nc2-1.Cl` (centres unmarked) [Compound 801-HCl]?
A: TGI ([1]; 125 mg/kg i.p. q3d x 3, day 29): 70%; TGI ([2]; 125 mg/kg i.p. q3d x 3): 93%; MTD for repeating dosing ([3]; 5-day repeat dose, intravenous infusion): 30 mg/kg/day; MTD ([3]; intravenous infusion twice daily with a 5-hour interval): 60 mg/kg/day; MTD ([4]; normal Sprague-Dawley rats, 6 mg/ml via intravenous infusion or slow intravenous injection): 120 mg/kg/day; MTD Values [5]: 300 mg/kg; Mean Tumor Volume ([6]; 300 mg/kg ip Days 8, 11, 14, Day 8): 159 ± 16 mm^3; Mean Tumor Volume ([6]; 300 mg/kg ip Days 8, 11, 14, Day 11): 221 ± 27 mm^3; Mean Tumor Volume ([6]; 300 mg/kg ip Days 8, 11, 14, Day 14): 164 ± 16 mm^3; Mean Tumor Volume ([6]; 300 mg/kg ip Days 8, 11, 14, Day 18): 47 ± 7 mm^3; Mean Tumor Volume ([6]; 300 mg/kg ip Days 8, 11, 14, Day 21): 39 ± 6 mm^3; Mean Tumor Volume ([6]; 300 mg/kg ip Days 8, 11, 14, Day 25): 74 ± 12 mm^3; Mean Tumor Volume ([6]; 300 mg/kg ip Days 8, 11, 14, Day 28): 95 ± 19 mm^3; maximum BW loss ([6]; 300 mg/kg ip, next day after the 2nd dosing): 7.7%; TGI (Day 25) ([6]; K562, 300 mg/kg ip Days 8, 11, 14): 98%; CR ratio (ratio of complete regression) ([6]; K562, 300 mg/kg ip Days 8, 11, 14, by Day 21): 3/8

Q: Which results are given for `CCC1(OC(=O)COc2ccc(C(=O)OC3c4cc5c(cc4C(c4cc(OC)c(OC)c(OC)c4)[C@H]4C(=O)OC[C@@H]34)OCO5)cc2)C(=O)OCc2c1cc1n(c2=O)Cc2cc3c(CN(C)C)c(O)ccc3nc2-1` (some centres unmarked) [Compound N1]?
A: IC50 [7, 12]: 24.2 nM; IC50 [8, 13]: 8 nM; IC50 [9, 14]: 7.05 nM

Q: What does the source list for `CCC1(OC(=O)COc2ccc(C(=O)OC3c4cc5c(cc4C(c4cc(OC)c(OC)c(OC)c4)C4C(=O)OCC34)OCO5)cc2)C(=O)OCc2c1cc1n(c2=O)Cc2cc3cc(OC(=O)N4CCC(N5CCCCC5)CC4)ccc3nc2-1` (centres unmarked) [Compound N2]?
A: IC50 ([7]; drugs 72 hours, colonies counted after 7 days, read-out: IC50 (HCT116)): > 500 nM; IC50 ([8]; drugs 72 hours, colonies counted after 14 days): ~520 nM; IC50 ([9]; drugs 72 hours, colonies counted after 15 days): 462 nM; inhibiting the growth of HCT116 human colon cancer xenografts [10]: most promising candidate drug against HCT116 human colon cancer among all 4 compounds; MTD for repeating dosing ([4]; rats, BID slow IV injection for 7 days): 60 mg/kg/day; MTD Values [5]: 300 mg/kg

Q: What does the source list for `CCc1c2c(nc3ccc(OC(=O)N4CCC(N5CCCCC5)CC4)cc13)-c1cc3c(c(=O)n1C2)COC(=O)C3(CC)OC(=O)COc1ccc(C(=O)OC2c3cc4c(cc3C(c3cc(OC)c(OC)c(OC)c3)[C@H]3C(=O)OC[C@@H]23)OCO4)cc1` (some centres unmarked) [Compound N3]?
A: IC50 ([7]; Homo sapiens, HCT-116, read-out: IC50 (HCT116)): 283 nM; IC50 ([8]; Homo sapiens): 300 nM; IC50 ([9]; Homo sapiens): 200 nM

Q: What does the source list for `CCc1c2c(nc3ccc(O)c(CN(C)C)c13)-c1cc3c(c(=O)n1C2)COC(=O)C3(CC)OC(=O)COc1ccc(C(=O)OC2c3cc4c(cc3C(c3cc(OC)c(OC)c(OC)c3)[C@H]3C(=O)OC[C@@H]23)OCO4)cc1` (some centres unmarked) [Compound N4]?
A: IC50 [7, 12]: 6.6 nM; IC50 [8, 13]: 5 nM; IC50 [9, 14]: 12.9 nM; MTD [11]: 250 mg/kg

Q: What does the source list for `CCc1c2c(nc3ccc(OC(=O)N4CCC(N5CCCCC5)CC4)cc13)-c1cc3c(c(=O)n1C2)COC(=O)[C@]3(O)CC` [Irinotecan]?
A: TGI ([1]; 70 mg/kg i.p. q3d x 3, day 29): 97%; TGI ([2]; 70 mg/kg i.p. q3d x 3): 92%; body weight loss ([2]; HCT116 model, during the treatment period): 8%

Q: Which “MTD Values” [5] does the source give for `CCC1(OC(=O)COc2ccc(C(=O)OC3c4cc5c(cc4C(c4cc(OC)c(OC)c(OC)c4)C4C(=O)OCC34)OCO5)cc2)C(=O)OCc2c1cc1n(c2=O)Cc2cc3c(CN(C)C)c(O)ccc3nc2-1.Cl` (centres unmarked) [N1 HCL Salt] here?
A: 120 mg/kg

Q: With `CCc1c2c(nc3ccc(OC(=O)N4CCC(N5CCCCC5)CC4)cc13)-c1cc3c(c(=O)n1C2)COC(=O)C3(CC)OC(=O)COc1ccc(C(=O)OC2c3cc4c(cc3C(c3cc(OC)c(OC)c(OC)c3)C3C(=O)OCC23)OCO4)cc1.Cl` (centres unmarked) [N3 HCL Salt] as the compound, how does the “MTD Values” [5] read?
A: 144 mg/kg

Q: For `CCc1c2c(nc3ccc(O)c(CN(C)C)c13)-c1cc3c(c(=O)n1C2)COC(=O)C3(CC)OC(=O)COc1ccc(C(=O)OC2c3cc4c(cc3C(c3cc(OC)c(OC)c(OC)c3)C3C(=O)OCC23)OCO4)cc1.Cl` (centres unmarked) [N4 HCL Salt], which “MTD Values” [5] is on record?
A: 180 mg/kg
